{"source": "patent US6573282B1", "about": "(priority 1995, dated 2003)", "key": {"[1]": {"tested_on": "formalin-induced nociception", "experiment": "Formalin-induced flinching (early and late/tonic phase), intrapaw injection", "assay_type": "in vivo, rat", "details": "for Formalin-Induced Flinching (Late Phase) % Maximal Efficacy / Formalin-Induced Flinching (Late Phase) ED50: intrapaw; for % Antagonism of Late Phase Flinching: 10 minutes prior to formalin, mean ± SEM; for A50, antinociception in the second phase of flinching: i.paw injection"}, "[2]": {"target": "T1, human μ opiate receptors (Homo sapiens, UniProt P35372)", "T1 construct": "expressed in transfected cells; host or cells: CHO cells", "T1 sequence (P35372 whole entry)": "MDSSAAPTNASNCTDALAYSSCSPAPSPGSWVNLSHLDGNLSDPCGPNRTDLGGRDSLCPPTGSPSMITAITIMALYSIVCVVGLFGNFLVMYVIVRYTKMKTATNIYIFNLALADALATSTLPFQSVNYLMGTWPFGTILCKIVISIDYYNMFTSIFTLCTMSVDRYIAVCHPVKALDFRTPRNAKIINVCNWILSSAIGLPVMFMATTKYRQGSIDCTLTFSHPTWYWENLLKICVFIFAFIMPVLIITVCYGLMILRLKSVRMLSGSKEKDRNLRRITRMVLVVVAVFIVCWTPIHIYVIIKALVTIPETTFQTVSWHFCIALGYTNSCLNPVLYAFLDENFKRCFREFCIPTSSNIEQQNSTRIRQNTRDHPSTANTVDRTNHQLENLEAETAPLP", "experiment": "biochemical", "assay_type": "binding"}, "[3]": {"target": "human δ receptor (Homo sapiens, UniProt P41143)", "sequence (P41143 whole entry)": "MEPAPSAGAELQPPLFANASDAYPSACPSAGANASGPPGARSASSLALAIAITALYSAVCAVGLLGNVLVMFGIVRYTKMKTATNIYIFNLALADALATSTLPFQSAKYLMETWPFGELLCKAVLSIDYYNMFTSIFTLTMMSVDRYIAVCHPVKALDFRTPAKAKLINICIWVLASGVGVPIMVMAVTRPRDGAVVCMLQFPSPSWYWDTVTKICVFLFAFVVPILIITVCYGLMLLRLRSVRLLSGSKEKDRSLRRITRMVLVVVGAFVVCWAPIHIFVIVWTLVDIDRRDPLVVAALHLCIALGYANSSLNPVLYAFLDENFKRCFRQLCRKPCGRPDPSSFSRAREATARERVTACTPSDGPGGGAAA", "experiment": "Opiate receptor binding, δ"}, "[4]": {"target": "human κ receptor (Homo sapiens, UniProt P41145)", "sequence (P41145 whole entry)": "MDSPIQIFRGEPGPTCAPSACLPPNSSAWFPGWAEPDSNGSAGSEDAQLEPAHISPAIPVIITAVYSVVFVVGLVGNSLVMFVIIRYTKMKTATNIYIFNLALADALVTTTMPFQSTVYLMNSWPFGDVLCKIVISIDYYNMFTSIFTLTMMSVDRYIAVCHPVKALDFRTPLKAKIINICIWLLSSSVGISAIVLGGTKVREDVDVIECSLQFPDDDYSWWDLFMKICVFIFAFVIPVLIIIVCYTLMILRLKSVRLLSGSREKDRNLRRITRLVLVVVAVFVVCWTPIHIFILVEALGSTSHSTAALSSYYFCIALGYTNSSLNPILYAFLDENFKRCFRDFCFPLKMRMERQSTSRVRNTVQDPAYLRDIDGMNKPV", "experiment": "biochemical", "assay_type": "binding"}, "[5]": {"tested_on": "yeast-injected left hind paw", "experiment": "Randall-Selitto assay, yeast-induced inflammation, paw pressure threshold", "assay_type": "in vivo, rat", "details": "four hours after yeast, n=10", "excerpt": "Air pressure from an air line is admitted through a needle valve to a syringe into a pressure gauge which is connected by a T-tube. The syringe is mounted with a plunger downward, to which is connected a short bullet-shaped wooden peg. The pressure is applied through the wooden tip to the plantar surface of the rat's foot at a specified rate of mm Hg per second. The end point is said to have been reached when the rat starts struggling.\nTypically, rats, such as albino rats (120-170 g) of the Charles River Sprague-Dawley strain, or other laboratory strain are used. Hyperalgesia [inflammation] is produced by the injection of 0.1 ml of a 20% suspension of Brewer's yeast into the plantar surface of the rat's hind foot. Thresholds can be determined using a modified apparatus described in Winter and Flataker [(1965) J. Pharm. Exp. Ther. 148:373]. The pain threshold is measured as the pressure in mm Hg required to induce the desired response [a sharp audible squeak and/or struggle] when pressure is applied to the foot. Air pressure from an air line [or other source, such as a vice] is admitted through a needle valve to a 20 ml glass syringe and to a pressure gauge. Pressure is applied to the foot of the rat at a selected rate. The agent compound to be tested is administered typically 2 hours after the yeast injection and threshold response is determined. […] Analgesic activity was determined in terms of the percentage of inhibition of response:\nInhibition (%)=Threshold of the treated group−Threshold of the control group/Threshold of the control group×100\nA Randall-Selitto assay [see, Randall et al. (1957) Arch. Int. Pharmacodyn.\nEach rat was injected with 100 μl of a 20% yeast solution into the plantar surface of the left hind paw. […] Control rats were treated with 10% DMSO alone [n=20]. The pain thresholds of the inflamed and non-inflamed paws were measured by application of a pressure stimulus to the paw and the paw pressure threshold in gram [g] was recorded."}, "[6]": {"tested_on": "carrageenan or yeast inflammatory stimulus", "experiment": "Separate tests using carrageenan or yeast as the inflammatory stimulus", "assay_type": "in vivo"}, "[7]": {"tested_on": "acetic acid-induced writhing", "details": "mice, intraparenterally (Takasuna et al. 1994); cited from earlier work"}, "[8]": {"tested_on": "acute pain models", "details": "given systemically; tail clip and hot plate tail withdrawal tests (Stahl et al., Shriver et al.); cited from earlier work"}, "[9]": {"tested_on": "catalepsy", "experiment": "Catalepsy: time to dismount from a 4 cm high bar after IM injection", "details": "for Time to Dismount from Bar (sec) Before Drug: before drug (baseline); for Time to Dismount from Bar (sec) Before Drug / Time to Dismount from Bar (sec) After Drug Treatment (15 min): individual rats and x ± SE; for catalepsy: unanesthetized rats, IM morphine 3 mg, loperamide 0.5 mg"}}, "note": "Where “and” joins values, the source holds several entries; their conditions need not be identical. Equal entries are not always repeated. Entries after “also recorded” stand apart in the source; their conditions may differ. Structures can show the parent of a compound that is named as a salt. Where two headings read alike, the source gives them in different places."}
{"molecule": "4-(4-chlorophenyl)-4-hydroxy-N,N-dimethyl-α,α-diphenyl-1-piperidinebutanamide methyl p-toluenesulfonate [Example 19]", "values": [{"measurement": "Formalin-Induced Flinching (Late Phase) % Maximal Efficacy", "setting": "[1]", "value": 69, "unit": "%"}, {"measurement": "Formalin-Induced Flinching (Late Phase) ED50", "setting": "[1]", "value": 93, "unit": "μg i. paw"}]}
{"molecule": "CCN(C)C(=O)C(CCN1CCC(O)(c2ccc(Cl)cc2)CC1)(c1ccccc1)c1ccccc1", "note": "[Compound 17A]", "values": [{"measurement": "Ki", "setting": "[2]", "value": 4, "unit": "nM"}, {"measurement": "Ki", "setting": "[3]", "value": 123, "unit": "nM"}, {"measurement": "Ki", "setting": "[4]", "value": 1420, "unit": "nM"}, {"measurement": "Formalin-Induced Flinching (Late Phase) % Maximal Efficacy", "setting": "[1]", "value": 91, "unit": "%"}, {"measurement": "Formalin-Induced Flinching (Late Phase) ED50", "setting": "[1]", "value": 4.8, "unit": "μg i. paw"}]}
{"molecule": "O=C(N1CCCC1)C(CCN1CCC(O)(c2ccc(Cl)cc2)CC1)(c1ccccc1)c1ccccc1", "note": "[Compound 17B]", "values": [{"measurement": "Ki", "setting": "[2]", "value": 2.2, "unit": "nM"}, {"measurement": "Ki", "setting": "[3]", "value": 68, "unit": "nM"}, {"measurement": "Ki", "setting": "[4]", "value": 2230, "unit": "nM"}, {"measurement": "Formalin-Induced Flinching (Late Phase) % Maximal Efficacy", "setting": "[1]", "value": 86, "unit": "%"}, {"measurement": "Formalin-Induced Flinching (Late Phase) ED50", "setting": "[1]", "value": 4.9, "unit": "μg i. paw"}]}
{"molecule": "O=C(N1CCCCC1)C(CCN1CCC(O)(c2ccccc2)CC1)(c1ccccc1)c1ccccc1", "note": "[Compound 17C]", "values": [{"measurement": "Ki", "setting": "[2]", "value": 2.5, "unit": "nM"}, {"measurement": "Ki", "setting": "[3]", "value": 15, "unit": "nM"}, {"measurement": "Ki", "setting": "[4]", "value": 4680, "unit": "nM"}, {"measurement": "Formalin-Induced Flinching (Late Phase) % Maximal Efficacy", "setting": "[1]", "value": 87, "unit": "%"}, {"measurement": "Formalin-Induced Flinching (Late Phase) ED50", "setting": "[1]", "value": 19, "unit": "μg i. paw"}]}
{"molecule": "CCOC(=O)C1(c2ccccc2)CCN(CCC(C#N)(c2ccccc2)c2ccccc2)CC1", "note": "[Deiphenoxylate]", "values": [{"measurement": "Ki", "setting": "[3]; read-out: In Vitro Binding Affinities Human Opiate Receptors Ki, δ", "value": 315, "unit": "nM"}, {"measurement": "Formalin-Induced Flinching (Late Phase) % Maximal Efficacy", "setting": "[1]", "value": 61, "unit": "%"}, {"measurement": "Formalin-Induced Flinching (Late Phase) ED50", "setting": "[1]", "value": 158, "unit": "μg i. paw"}]}
{"molecule": "N#CC(CCN1CCC(C(=O)O)(c2ccccc2)CC1)(c1ccccc1)c1ccccc1", "note": "[Difenoxin]", "values": [{"measurement": "Ki", "setting": "[2]", "value": 13, "unit": "nM"}, {"measurement": "Ki", "setting": "[3]", "value": 56, "unit": "nM"}, {"measurement": "Formalin-Induced Flinching (Late Phase) % Maximal Efficacy", "setting": "[1]", "value": 90, "unit": "%"}, {"measurement": "Formalin-Induced Flinching (Late Phase) ED50", "setting": "[1]", "value": 33, "unit": "μg i. paw"}]}
{"molecule": "CNC(=O)C(CCN1CCC(O)(c2ccc(Cl)cc2)CC1)(c1ccccc1)c1ccccc1.Cl", "note": "[Example 18, 4-(p-chlorophenyl)-4-hydroxy-N-methyl-α,α-diphenyl-1-piperidinebutyramide hydrochloride]", "values": [{"measurement": "Ki", "setting": "[2]", "value": 1.1, "unit": "nM"}, {"measurement": "Ki", "setting": "[3]", "value": 200, "unit": "nM"}, {"measurement": "Ki", "setting": "[4]", "value": "> 1000", "unit": "nM"}, {"measurement": "Formalin-Induced Flinching (Late Phase) % Maximal Efficacy", "setting": "[1]", "value": 88, "unit": "%"}, {"measurement": "Formalin-Induced Flinching (Late Phase) ED50", "setting": "[1]", "value": 3.2, "unit": "μg i. paw"}]}
{"molecule": "CN(C)C(=O)C(CCN1CCC(O)(c2ccc(Cl)cc2)CC1)(c1ccccc1)c1ccccc1", "note": "[Ioperamide]", "values": [{"measurement": "Formalin-Induced Flinching (Late Phase) % Maximal Efficacy", "setting": "[1]", "value": 97, "unit": "%"}, {"measurement": "Formalin-Induced Flinching (Late Phase) ED50", "setting": "[1]", "value": 6, "unit": "μg i. paw"}]}
{"molecule": "CN(C)C(=O)C(CCN1CCC(O)(c2ccc(Cl)cc2)CC1)(c1ccccc1)c1ccccc1", "note": "[loperamide, 4-(p-chlorophenyl)-4-hydroxy-N-N-dimethyl-α,α-diphenyl-1-piperidinebutyramide hydrochloride]", "values": [{"measurement": "Paw Pressure Threshold", "setting": "[5]; dose 10 μg/100 μl/rat in 10% DMSO", "value": "66 ± 15", "unit": "g"}, {"measurement": "Paw Pressure Threshold", "setting": "[5]; dose 50 μg/100 μl/rat in 10% DMSO", "value": "124 ± 29", "unit": "g"}, {"measurement": "Paw Pressure Threshold", "setting": "[5]; dose 250 μg/100 μl/rat in 10% DMSO", "value": "153 ± 25", "unit": "g"}, {"measurement": "time prior to formalin injection at which administration was still efficacious", "setting": "[1]; 100 μg i.paw", "value": "up to 6 hours"}, {"measurement": "antinociception when injected into the paw contralateral to formalin", "setting": "[1]; 100 μg i.paw, contralateral", "value": "failed to produce antinociception"}, {"measurement": "antihyperalgesia when injected ipsilateral to formalin", "setting": "[1]; 100 μg i.paw, ipsilateral", "value": "exhibited antihyperalgesia activity"}, {"measurement": "late phase flinching behavior at the highest dose", "setting": "[1]; 300 μg i.paw, hydrochloride", "value": "practically no flinching behavior; also recorded: Full efficacy"}, {"measurement": "% Antagonism of Late Phase Flinching", "setting": "[1]; dose 1 μg into the paw", "value": "20 ± 7", "unit": "%"}, {"measurement": "% Antagonism of Late Phase Flinching", "setting": "[1]; dose 3 μg into the paw", "value": "53 ± 10", "unit": "%"}, {"measurement": "% Antagonism of Late Phase Flinching", "setting": "[1]; dose 10 μg into the paw", "value": "55 ± 15", "unit": "%"}, {"measurement": "% Antagonism of Late Phase Flinching", "setting": "[1]; dose 30 μg into the paw", "value": "74 ± 10", "unit": "%"}, {"measurement": "% Antagonism of Late Phase Flinching", "setting": "[1]; dose 100 μg into the paw", "value": "75 ± 11", "unit": "%"}, {"measurement": "% Antagonism of Late Phase Flinching", "setting": "[1]; dose 300 μg into the paw", "value": "97 ± 2", "unit": "%"}, {"measurement": "effects on early phase flinching", "setting": "[1]; doses of 0.3, 3, 30 and 300 μg", "value": "no significant effects"}, {"measurement": "A50, antinociception in the second phase of flinching", "setting": "[1]", "value": 6, "unit": "µg"}, {"measurement": "antihyperalgesic activity", "setting": "[6]", "value": "demonstrated antihyperalgesic activity"}, {"measurement": "acetic acid-induced writhing", "setting": "[7]", "value": "suppression"}, {"measurement": "analgesic effects in acute pain models", "setting": "[8]", "value": "little or no analgesic effects"}, {"measurement": "Time to Dismount from Bar (sec) Before Drug", "setting": "[9]; IM loperamide (0.5 mg) group, hydrochloride", "value": "1 sec (4×) and 1 ± 0 sec"}, {"measurement": "Time to Dismount from Bar (sec) After Drug Treatment (15 min)", "setting": "[9]; IM loperamide (0.5 mg), hydrochloride", "value": "1 sec (2×) and 3 sec and 2 sec and 2 ± 1 sec"}, {"measurement": "catalepsy", "setting": "[9]", "value": "no sign of catalepsy"}]}
{"molecule": "CN1CC[C@]23c4c5ccc(O)c4O[C@H]2[C@@H](O)C=C[C@H]3[C@H]1C5.O=S(=O)(O)O", "note": "[morphine, morphine sulfate]", "values": [{"measurement": "A50, antinociception in the second phase of flinching", "setting": "[1]", "value": 72, "unit": "µg"}, {"measurement": "Time to Dismount from Bar (sec) Before Drug", "setting": "[9]; IM morphine (3 mg) group, sulfate", "value": "1 sec (3×) and 1 ± 1 sec and 2 sec"}, {"measurement": "Time to Dismount from Bar (sec) After Drug Treatment (15 min)", "setting": "[9]; IM morphine (3 mg), sulfate", "value": "37 s and 31 s and 37 ± 11 s and 29 s and 52 s"}, {"measurement": "catalepsy", "setting": "[9]", "value": "significantly more cataleptic"}]}
